Here are results for 16 molecules from PubChem BioAssay AID192 (DTP/NCI, 2004).

In this experiment the test system is BDF1 mice, B16 melanoma ip, median survival T/C. Kind of experiment: NCI In Vivo Anticancer Drug Screen. Data for tumor model B16 Melanoma (intraperitoneal) in B6D2F1 (BDF1) mice. The settings on record: endpoint: median survival time, higher = longer survival. In outline:
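Survival or tumor size is measured after treatment of tumor-bearing mice and normalised to the vehicle-treated control group.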

[1] abbreviates: dose: 100.0 mg/kg/injection, schedule: Q04DX003 (ip), vehicle: Klucel (hydroxypropylcellulose) (HPC).
[2] abbreviates: dose: 200.0 mg/kg/injection, schedule: Q01DX009 (ip), vehicle: Klucel (hydroxypropylcellulose) (HPC).
Where [3] appears, read: dose: 100.0 mg/kg/injection, schedule: Q01DX009 (ip), vehicle: Klucel (hydroxypropylcellulose) (HPC).
Setting [4] is: dose: 400.0 mg/kg/injection, schedule: Q01DX009 (ip), vehicle: Klucel (hydroxypropylcellulose) (HPC).
Where [5] appears, read: dose: 50.0 mg/kg/injection, schedule: Q04DX003 (ip), vehicle: saline with Tween-80.
Where [6] appears, read: dose: 100.0 mg/kg/injection, schedule: Q04DX003 (ip), vehicle: saline with Tween-80.
Where [7] appears, read: dose: 200.0 mg/kg/injection, schedule: Q04DX003 (ip), vehicle: saline with Tween-80.
Where [8] appears, read: dose: 12.5 mg/kg/injection, schedule: Q01DX009 (ip), vehicle: saline with Tween-80.
[9] abbreviates: dose: 25.0 mg/kg/injection, schedule: Q01DX009 (ip), vehicle: saline with Tween-80.
Where [10] appears, read: dose: 50.0 mg/kg/injection, schedule: Q01DX009 (ip), vehicle: saline with Tween-80.

“And” between values parts separate entries of the source, which are not always exact repeats. Equal entries are not always repeated. Inconclusive results and toxic doses are left out.

Consider `CCOC(=O)C(CC(C)C)NC(=O)C(Cc1ccc(N(CCCl)CCCl)cc1)NC(C)=O` (configuration not stated), for which the T/C is, setting by setting: (dose: 1.0 mg/kg/injection, schedule: Q01DX009 (ip), vehicle: saline with Tween-80) 106 % of control; (dose: 2.0 mg/kg/injection, schedule: Q01DX009 (ip), vehicle: saline with Tween-80) 113 % of control; (dose: 4.0 mg/kg/injection, schedule: Q01DX009 (ip), vehicle: saline with Tween-80) 106 % of control; (dose: 8.0 mg/kg/injection, schedule: Q01DX009 (ip), vehicle: saline with Tween-80) 119 % of control; (dose: 8.0 mg/kg/injection, schedule: Q01DX009 (ip), vehicle: saline) 105 % of control; (dose: 16.0 mg/kg/injection, schedule: Q01DX009 (ip), vehicle: saline) 116 % of control.

With `CC(=O)OC1=C(c2ccccc2)C(=O)c2ccccc21`, the T/C is 86 % of control (dose: 25.0 mg/kg/injection, schedule: Q04DX003 (ip), vehicle: Klucel (hydroxypropylcellulose) (HPC)); 86 % of control (dose: 50.0 mg/kg/injection, schedule: Q04DX003 (ip), vehicle: Klucel (hydroxypropylcellulose) (HPC)); 86 % of control under setting [1].

For the molecule `CCO/C=C1\SC(=S)N(c2ccc(OCC)cc2)C1=O`, the T/C under setting [2] is 92 % of control.

`Cc1c(Cl)cccc1NC(=O)Oc1ccc(Cl)cc1`: the T/C is 98 % of control under setting [3], 101 % of control under setting [2] and 96 % of control under setting [4].

Consider `Oc1cc(N2CC2)c(O)cc1N1CC1`, for which the T/C is, setting by setting: (dose: 0.22 mg/kg/injection, schedule: Q01DX009 (ip), vehicle: saline) 123 % of control; (dose: 0.44 mg/kg/injection, schedule: Q01DX009 (ip), vehicle: saline) 188 % of control; (dose: 0.68 mg/kg/injection, schedule: Q01DX009 (ip), vehicle: saline) 156 % of control and 159 % of control.

For the molecule `O/N=C\c1ccc(/C=N/O)cc1`, the T/C is, setting by setting: under setting [5], 119 % of control; under setting [6], 119 % of control; under setting [7], 111 % of control.

`CC1(C)N=C(N)N=C(N)N1c1cccc(CCCCc2ccc(Cl)c(S(=O)(=O)F)c2)c1`: the T/C (dose: 3.13 mg/kg/injection, schedule: Q01DX009 (ip), vehicle: Klucel (hydroxypropylcellulose) (HPC)) was 94 % of control; the T/C (dose: 6.25 mg/kg/injection, schedule: Q01DX009 (ip), vehicle: Klucel (hydroxypropylcellulose) (HPC)) is 100 % of control; the T/C (dose: 12.5 mg/kg/injection, schedule: Q01DX009 (ip), vehicle: Klucel (hydroxypropylcellulose) (HPC)) was 94 % of control.

Turning to `Cc1cccc2nc(-c3ccccc3)ccc12`, the T/C is 107 % of control (dose: 12.5 mg/kg/injection, schedule: Q04DX003 (ip), vehicle: saline) and 105 % of control (dose: 25.0 mg/kg/injection, schedule: Q04DX003 (ip), vehicle: saline).

Turning to `CC(O)c1cccnc1` (configuration not stated), the T/C (dose: 10.0 mg/kg/injection, schedule: Q01DX009 (ip), vehicle: saline) is 122 % of control; the T/C (dose: 20.0 mg/kg/injection, schedule: Q01DX009 (ip), vehicle: saline) is 116 % of control; the T/C (dose: 40.0 mg/kg/injection, schedule: Q01DX009 (ip), vehicle: saline) is 122 % of control.

For `COc1cc2c(cc1OC)/C(=N/N=C1\CCCc3cc(OC)c(OC)cc31)CCC2`, the T/C is 104 % of control (dose: 1.56 mg/kg/injection, schedule: Q01DX009 (ip), vehicle: water); 100 % of control (dose: 3.13 mg/kg/injection, schedule: Q01DX009 (ip), vehicle: water); 100 % of control (dose: 6.25 mg/kg/injection, schedule: Q01DX009 (ip), vehicle: water); 95 % of control (dose: 12.5 mg/kg/injection, schedule: Q01DX009 (ip), vehicle: water).

`C[NH-].C[NH-].C[NH-].C[NH-].[Cl][Rh][Cl]`: the T/C reads like this: (dose: 25.0 mg/kg/injection, schedule: Q01DX009 (ip), vehicle: Klucel (hydroxypropylcellulose) (HPC)) 114 % of control; (dose: 50.0 mg/kg/injection, schedule: Q01DX009 (ip), vehicle: Klucel (hydroxypropylcellulose) (HPC)) 120 % of control; under setting [3], 105 % of control.

As for `COc1ccc(C(=O)c2ccc(C)cc2)cc1`, the T/C under setting [3] is 97 % of control; the T/C under setting [1] was 88 % of control; the T/C under setting [2] is 93 % of control; the T/C (dose: 200.0 mg/kg/injection, schedule: Q04DX003 (ip), vehicle: Klucel (hydroxypropylcellulose) (HPC)) was 95 % of control; the T/C under setting [4] was 93 % of control; the T/C (dose: 400.0 mg/kg/injection, schedule: Q04DX003 (ip), vehicle: Klucel (hydroxypropylcellulose) (HPC)) was 102 % of control.

As for `COc1cc2c(c(OC)c1OC)C(=O)/C(=C\c1ccccc1)O2`, the T/C runs as follows: (dose: 6.25 mg/kg/injection, schedule: Q01DX009 (ip), vehicle: saline with Tween-80) 101 % of control; under setting [8], 106 % of control; under setting [9], 103 % of control; under setting [10], 86 % of control.

Consider `CCCCN(C)N=Nc1c(C(N)=O)n[nH]c1C`, for which the T/C under setting [8] is 110 % of control; the T/C under setting [9] is 105 % of control; the T/C under setting [10] is 122 % of control; the T/C under setting [5] is 100 % of control; the T/C under setting [6] was 105 % of control; the T/C under setting [7] was 113 % of control.

Regarding `Nc1nc(F)nc2nc[nH]c12`, the T/C reads like this: (dose: 5.0 mg/kg/injection, schedule: Q01DX009 (ip), vehicle: Klucel (hydroxypropylcellulose) (HPC)) 88 % of control and 109 % of control; (dose: 10.0 mg/kg/injection, schedule: Q01DX009 (ip), vehicle: Klucel (hydroxypropylcellulose) (HPC)) 90 % of control and 118 % of control; (dose: 20.0 mg/kg/injection, schedule: Q01DX009 (ip), vehicle: Klucel (hydroxypropylcellulose) (HPC)) 95 % of control and 122 % of control.

As to `CC(=Nc1ccccc1)C1=C(O)C(Cc2ccccc2)NC1=O` (configuration not stated), the T/C was 100 % of control under setting [8]; 102 % of control under setting [9]; 106 % of control under setting [10]; 98 % of control and 100 % of control (dose: 100.0 mg/kg/injection, schedule: Q01DX009 (ip), vehicle: saline with Tween-80).
